Measurements from ChEMBL document CHEMBL1148279, “Effects of bisphosphonates on the growth of Entamoeba histolytica and Plasmodium species in vitro and in vivo” (J Med Chem, 2004).

Tests used:
in vitro = conditions: human, KB cells (nasopharyngeal carcinoma)
Description: Toxicity evaluated against human nasopharyngeal carcinoma KB cell line

Entamoeba histolytica = assay: In vitro growth inhibition against Entamoeba histolytica; assay type: functional, organism-based
Plasmodium falciparum = assay: microbe, parasite or virus in culture
Description: In vitro growth inhibition against Plasmodium falciparum

[1] = Therapeutic index was expressed as ratio of LD50 for KB cell line to IC50 against Entamoeba histolytica; assay type: cell-based; conditions: human, KB cells; read-out: TI

SMILES	CC50 (in vitro) [µM]	IC50 (Entamoeba histolytica) [µM]	IC50 (Plasmodium falciparum) [µM]	selectivity ratio [1]
O=P(O)(O)C(Nc1nccc2ccccc12)P(=O)(O)O	673	> 200	50.4	
O=P(O)(O)C(Nc1ccccn1)P(=O)(O)O	465	> 200	> 200	
Cc1csc(NC(P(=O)(O)O)P(=O)(O)O)n1	150	> 200	> 200	
O=P(O)(O)C(O)(CCc1cccnc1)P(=O)(O)O	> 804	> 200		
O=P(O)(O)C(CNc1ccncc1)P(=O)(O)O	386	> 200	> 200	
O=P(O)(O)C(CNc1ccccn1)P(=O)(O)O	144	> 200	17	
CCCCCCCC(O)(P(=O)(O)O)P(=O)(O)O	308	22.3	26.7	
NCCCCC(O)(P(=O)(O)O)P(=O)(O)O	91	> 200		
CC(C)(C)c1cc(NC(P(=O)(O)O)P(=O)(O)O)cc(C(C)(C)C)c1	634	19.2	> 200	33
O=P(O)(O)C(Nc1cccnc1)P(=O)(O)O	782	60	> 200	13
O=P(O)(O)C(O)(Cc1c[nH]cn1)P(=O)(O)O	41	> 200		
CCOP(=O)(OCC)C(Nc1ncccc1C)P(=O)(OCC)OCC	> 790	> 200		
O=P(O)(O)C(Nc1cccnc1Cl)P(=O)(O)O	> 963	> 200	> 200	
O=P(O)(O)C(Nc1nc2ccccc2s1)P(=O)(O)O	< 0.93		> 200	
CCOP(=O)(OCC)C(Nc1cc(C)ccn1)P(=O)(OCC)OCC	127	> 200	> 200	
O=P(O)(O)CC(c1cccnc1)P(=O)(O)O (centres undefined)	1020	> 200	> 200	
Nc1ccc(CC(O)(P(=O)(O)O)P(=O)(O)O)cc1		> 200		
O=P(O)(O)C(Nc1ccc(I)cn1)P(=O)(O)O	466	39.5	> 200	11.8
CCn1c2ccccc2c2ccc(NC(P(=O)(O)O)P(=O)(O)O)cc21	710	> 200	104	
O=P(O)(O)C(NCCCc1ccccc1)P(=O)(O)O	> 970	15.6	> 200	> 62.2
CCCCCCCc1ccc(NC(P(=O)(O)O)P(=O)(O)O)cc1	211	36.2		
O=P(O)(O)C(O)(Cc1ccccn1)P(=O)(O)O		> 200		
CCCCOc1ccc(NC(P(=O)(O)O)P(=O)(O)O)cc1	210	3.98	> 200	52.7
O=P(O)(O)C(N1CCCCC1)P(=O)(O)O	> 1090	> 200	> 200	

SMILES	CC50 (in vitro) [µM]	IC50 (Entamoeba histolytica) [µM]	IC50 (Plasmodium falciparum) [µM]	selectivity ratio [1]
O=C(O)c1cn(C2CC2)c2cc(N3CCN(CC(P(=O)(O)O)P(=O)(O)O)CC3)c(F)cc2c1=O	> 568	> 200	> 200	
Cc1cc(C)nc(NC(P(=O)(O)O)P(=O)(O)O)c1	633	177	> 200	3.58
O=P(O)(O)C(Nc1ncccc1OCc1ccccc1)P(=O)(O)O	> 764	> 200	> 200	
CCCC(O)(P(=O)(O)O)P(=O)(O)O	> 967	> 200		
O=P(O)(O)CC(c1ccncc1)P(=O)(O)O (centres undefined)	> 1120	> 200	> 200	
O=P(O)(O)CC(c1ccccn1)P(=O)(O)O (centres undefined)	< 1.1	> 200	> 200	
O=P(O)(O)C(Nc1ccc(Cl)cn1)P(=O)(O)O	> 991	87	10.6	
CCc1cccc(NC(P(=O)(O)O)P(=O)(O)O)c1	> 1020	> 200	> 200	
Cc1cccnc1NC(P(=O)(O)O)P(=O)(O)O		> 200		
CC(N)CC(O)(P(=O)(O)O)P(=O)(O)O (centres undefined)	> 977	> 200		
O=P(O)(O)C(O)(CCNCCCCc1ccccc1)P(=O)(O)O	> 727	20.5	> 200	> 35.5
Cc1ccnc(NC(P(=O)(O)O)P(=O)(O)O)c1		> 200	> 200	
CCCCCCCCCCCCCCCCCC(O)(P(=O)(O)O)P(=O)(O)O	< 0.65	> 200	> 200	
O=P(O)(O)C(Nc1c(F)c(F)c(F)c(F)c1F)P(=O)(O)O	> 779	> 200	> 200	
O=P(O)(O)C(O)(Cc1ccncc1)P(=O)(O)O	171	> 200		
O=P(O)(O)C(Nc1ccc2c(c1)CCC2)P(=O)(O)O	> 976	> 200	> 200	
Cc1cccc(NC(P(=O)(O)O)P(=O)(O)O)n1	18.6	64	> 200	
CCC(C)CNC(P(=O)(O)O)P(=O)(O)O (centres undefined)	394	135	> 200	2.92
O=P(O)(O)C(N1CCc2ccccc2C1)P(=O)(O)O	> 922	71		> 13
O=P(O)(O)C(Nc1ccc(Cl)nc1)P(=O)(O)O	> 992	21.7	> 200	> 45.7
O=P(O)(O)C(N1CCC(O)CC1)P(=O)(O)O	> 1010	> 200	> 200	
O=P(O)(O)C(Nc1cc(Cl)cc(Cl)c1)P(=O)(O)O [(3,5-DICHLOROPHENYLAMINO)METHYLENEDIPHOSPHONIC ACID]	314	> 200	> 200	
O=P(O)(O)C(NCCc1ccc(O)cc1)P(=O)(O)O [(4-HYDROXYPHENETHYLAMINO)METHYLENEDIPHOSPHONIC ACID]	99.8	> 200	> 200	
CCCCN(CC)C(P(=O)(O)O)P(=O)(O)O [(BUTYL(ETHYL)AMINO)METHYLENEDIPHOSPHONIC ACID]	> 1060	47.3	> 200	> 22.3

SMILES	CC50 (in vitro) [µM]	IC50 (Entamoeba histolytica) [µM]	IC50 (Plasmodium falciparum) [µM]	selectivity ratio [1]
CCCCNC(P(=O)(O)O)P(=O)(O)O [(BUTYLAMINO)METHYLENEDIPHOSPHONIC ACID]	212	> 200	> 200	
O=P(O)(O)C(NC1CCC1)P(=O)(O)O [(CYCLOBUTYLAMINO)METHYLENEDIPHOSPHONIC ACID]	260	> 200	> 200	
O=P(O)(O)C(NC1CCCCC1)P(=O)(O)O [(CYCLOHEXYLAMINO)METHYLENEDIPHOSPHONIC ACID]			> 200	
O=P(O)(O)C(NC1CCCCCCC1)P(=O)(O)O [(CYCLOOCTYLAMINO)METHYLENEDIPHOSPHONIC ACID]	354	15.5	> 200	22.9
O=P(O)(O)C(NC1CCCC1)P(=O)(O)O [(CYCLOPENTYLAMINO)METHYLENEDIPHOSPHONIC ACID]	629	35.9	> 200	17.5
O=P(O)(O)C(NC1CC1)P(=O)(O)O [(CYCLOPROPYLAMINO)METHYLENEDIPHOSPHONIC ACID]	246	113	> 200	2.18
O=P(O)(O)C(N(C1CCCCC1)C1CCCCC1)P(=O)(O)O [(DICYCLOHEXYLAMINO)METHYLENEDIPHOSPHONIC ACID]	> 844	> 200	> 200	
CC(C)N(C(C)C)C(P(=O)(O)O)P(=O)(O)O [(DIISOPROPYLAMINO)METHYLENEDIPHOSPHONIC ACID]	852	194	> 200	4.39
CCCN(CCC)C(P(=O)(O)O)P(=O)(O)O [(DIPROPYLAMINO)METHYLENEDIPHOSPHONIC ACID]	322	> 200	> 200	
CC(C)CNC(P(=O)(O)O)P(=O)(O)O [(ISOBUTYLAMINO)METHYLENEDIPHOSPHONIC ACID]	50.5	> 200	> 200	
CCCNC(P(=O)(O)O)P(=O)(O)O [(PROPYLAMINO)METHYLENEDIPHOSPHONIC ACID]	499	> 200	> 200	
NCCCC(O)(P(=O)(O)O)P(=O)(O)O [ALENDRONIC ACID]		> 200		
O=P(O)(O)C(O)(C1CCC1)P(=O)(O)O [CYCLOBUTYL(HYDROXY)METHYLENEDIPHOSPHONIC ACID]	> 1220	> 200	> 200	
O=P(O)(O)C(O)(C1CCCCC1)P(=O)(O)O [CYCLOHEXYL(HYDROXY)METHYLENEDIPHOSPHONIC ACID]	1090	> 200	> 200	
O=P(O)(O)C(O)(C1CC1)P(=O)(O)O [CYCLOPROPYL(HYDROXY)METHYLENEDIPHOSPHONIC ACID]	> 1240	> 200	> 200	
O=P(O)(O)C(NC1CCCCCC1)P(=O)(O)O [INCADRONIC ACID]	166	> 200	> 200	
Cc1ncc([N+](=O)[O-])n1CCO [METRONIDAZOLE]		3.2		
O=P(O)(O)C(N1CCCCCC1)P(=O)(O)O [N-(HEXAMETHYLENEIMINO)METHYLENEBISPHOSPHONIC ACID]	> 1100	> 200	> 200	
NCCCCCC(O)(P(=O)(O)O)P(=O)(O)O [NERIDRONIC ACID]		> 200		
CN(C)CCC(O)(P(=O)(O)O)P(=O)(O)O [OLPADRONIC ACID]	> 1050	> 200		
O=P(O)(O)C(N1CCSCC1)P(=O)(O)O [THIOMORPHOLINOMETHYLENEDIPHOSPHONIC ACID]	> 1120	> 200	> 200	
O=P(O)(O)C(O)(Cn1ccnc1)P(=O)(O)O [ZOLEDRONIC ACID]	63.7	12	167	
